Assay [1] has as its system progesterone receptor (PR) expression in human fimbriae. As to the kind of experiment: 3D human fimbriae culture: progesterone receptor immunohistochemistry. Conditions: 1 nM and 10 nM E2. It is filed as cell-based. The protocol: (§1) Tissues were micro-dissected in alpha-MEM (Gibco, Carlsbad, Calif.) with 1% penicillin-streptomycin (Invitrogen, Carlsbad, Calif.). Individual fimbriae were separated into ˜50 mm^3 pieces. A portion of the tissue was fixed in 2% paraformaldehyde for use as an uncultured control. For optimization studies, fimbriae were cultured without matrix, encapsulated in 0.5% alginate, or encapsulated in 0.5% alginate with 1 mg/ml collagen and 0.1% fibronectin, as previously described for murine cultures (King et al. J Vis Exp. 2011.; herein incorporated by reference in its entirety). For subsequent treatments, 0.5% alginate encapsulated fimbriae were randomly assigned to treatment groups, with at least five fimbriae per condition, per patient, in a 24-well plate containing alpha-MEM and 1% penicillin-streptomycin. […] Prior to fixation, fimbriae were labeled with 10 μM bromodeoxyurine (BrdU, Sigma-Aldrich) for 24 hours to denote proliferating cells. Fimbriae cultures were fixed (2% paraformaldehyde) followed by dehydration in ethanol and xylene, and embedment in paraffin.
Sections (5 μm) were cut and stained via hematoxylin and eosin for morphological analysis or immunohistochemistry was performed to localize proteins of interest as previously described (King et al. Endocr Relat Cancer. 2011. 18:627-42.; herein incorporated by reference in its entirety). […]

The subject of another assay is VEGF-A. As to the kind of experiment: ELISA of fallopian culture medium: VEGF-A. It is filed as cell-based, human. Conditions: 10 nM E2, 7 days, n=7; not significantly altered. The protocol:
as §1, with “Fimbriae cultures were fixed (2% paraformaldehyde) followed by dehydration in ethanol and xylene, and embedment in paraffin.” left out
(§2) IL8, VEGF-A, and FGF2 were detected in fallopian culture medium by enzyme-linked immunosorbent assay for human IL8 (EMD Millipore, Billerica, Mass., USA), VEGF-A (RayBiotech, GA, USA), or FGF2 (Abcam) respectively using the manufacturers' protocols. […] Results were normalized to total protein content as determined by western blotting and Ponceau staining to account for difference in tissue size between treatment groups. […]

For a further assay, the system named is FGF2. In words: ELISA of fallopian culture medium: FGF2. Conditions: 10 nM E2, 7 days, n=6; not significantly altered. It is filed as cell-based, human. The protocol:
as §1, with “Fimbriae cultures were fixed (2% paraformaldehyde) followed by dehydration in ethanol and xylene, and embedment in paraffin.” left out
as §2

Another assay deals with p53 stabilization in FTE. In words: 3D human fimbriae culture: p53 immunohistochemistry. It is filed as cell-based. Conditions: 2 and 7 days treatment, n=8. As for the experimental part: as §1
Sections (5 μm) were cut and stained via hematoxylin and eosin for morphological analysis or immunohistochemistry was performed to localize proteins of interest as previously described (King et al. Endocr Relat Cancer. 2011. 18:627-42.; herein incorporated by reference in its entirety). Slides were rehydrated through an ethanol gradient, prior to 0.1M sodium citrate retrieval and peroxidase block. […]
Immunohistochemistry images were taken via a Nikon E600 microscope, DXM1200 digital camera and NIS Elements software (Nikon Instruments, Melville, N.Y.). […] BrdU sections were imaged and epithelial cells (CK8 positive) were quantified for proliferation via ImageJ software (NIH, Bethesda, Md.). At least three fimbriae with 200 or more FTE were quantified for each treatment. Analysis of p53 staining was similar, with at least three fimbriae per treatment, per patient analyzed. Samples with p53 expression were quantified utilizing adjacent sections stained for the secretory cell marker PAX8 in a qualitative manner as described.

For assay [2], the system named is primary human endocervical cells. In words: Immunohistochemistry of 3D endocervical cultures (PR, ER, Ki67). It is filed as cell-based. The settings on record: day-14 (E2), day-28 (E2+P4). As for the experimental part: To represent a 28-day human menstrual cycle in vitro, a stepwise hormone regimen was added to the cells. For the first 7 days, cells were incubated with 0.1 nM E2, followed by 1 nM E2 for the next 7 days (FIG. 45). Then cells were treated for 1 nM E2 and 10 nM P4 for an additional 7 days, followed by 0.1 nM E2 and 50 nM P4 for 5 days. Then media without hormones were added for the final 2 days for a total culture period of 28 days. Media was collected every 48 h and stored at −20° C. For PR antagonist studies, cells were treated with 100 nM RU486 (Sigma, MO) which was added on day-21. To visualize the cells on scaffold, cells were infected with the adenovirus containing pAD-eGFP-RLC (Cell Imaging Core, Northwestern University) (Khuon et al. Journal of cell science 123:431-440.; herein incorporated by reference in its entirety) by adding 2 μl of amplified virus to 3.5 ml of media per […] for 24 h.
Scaffolds were washed twice in PBS, covered with histogel (Fisher Scientific, MA) and fixed in 4% paraformaldehyde for 5 h. Processing and hematoxylin and eosin (H&E) staining was performed at the Northwestern University Center for Reproductive Sciences Histology Core (Chicago, Ill.). […] HRP activity was detected using 3,3′-Diaminobenzidine (DAB) in 1:50 dilution (Dako, CA) as substrate for 30-60 sec and then counterstained with hematoxylin. […]

Take `C[C@]12CC[C@@H]3c4ccc(O)cc4CC[C@H]3[C@@H]1CC[C@@H]2O` [E2, estradiol]: in assay [1], the “progesterone receptor (PR) expression compared to vehicle control” value is “induction”. Also, the “VEGF-A increase compared to vehicle control” value with VEGF-A is 140%±75%. In addition, in the assay with FGF2, the “FGF2 decrease compared to vehicle control” value is listed as 9%±8%. Further, the p53 stabilization entry in the assay with p53 stabilization in FTE is on record as “no factor notably induced p53 stabilization”. The “Ki67 staining compared to control” value in assay [2] is “increased staining”.

For the origin of these results see US11542475B2, “3D microphysiologic system” (Northwestern University, priority 2014, dated 2023).
